The values below come from patent US20230183239A1, “ECTONUCLEOTIDE PYROPHOSPHATASE-PHOSPHODIESTERASE 1 (ENPP-1) INHIBITORS AND USES THEREOF” (AbbVie Inc., priority 2017, published 2023).

The Ki is a measure of affinity in units of concentration, obtained from inhibition or displacement.

What all share (format): biochemical
The target in assay [1] is T1, ENPP1 (Homo sapiens, UniProt P22413).
T1 sequence (P22413 1-925): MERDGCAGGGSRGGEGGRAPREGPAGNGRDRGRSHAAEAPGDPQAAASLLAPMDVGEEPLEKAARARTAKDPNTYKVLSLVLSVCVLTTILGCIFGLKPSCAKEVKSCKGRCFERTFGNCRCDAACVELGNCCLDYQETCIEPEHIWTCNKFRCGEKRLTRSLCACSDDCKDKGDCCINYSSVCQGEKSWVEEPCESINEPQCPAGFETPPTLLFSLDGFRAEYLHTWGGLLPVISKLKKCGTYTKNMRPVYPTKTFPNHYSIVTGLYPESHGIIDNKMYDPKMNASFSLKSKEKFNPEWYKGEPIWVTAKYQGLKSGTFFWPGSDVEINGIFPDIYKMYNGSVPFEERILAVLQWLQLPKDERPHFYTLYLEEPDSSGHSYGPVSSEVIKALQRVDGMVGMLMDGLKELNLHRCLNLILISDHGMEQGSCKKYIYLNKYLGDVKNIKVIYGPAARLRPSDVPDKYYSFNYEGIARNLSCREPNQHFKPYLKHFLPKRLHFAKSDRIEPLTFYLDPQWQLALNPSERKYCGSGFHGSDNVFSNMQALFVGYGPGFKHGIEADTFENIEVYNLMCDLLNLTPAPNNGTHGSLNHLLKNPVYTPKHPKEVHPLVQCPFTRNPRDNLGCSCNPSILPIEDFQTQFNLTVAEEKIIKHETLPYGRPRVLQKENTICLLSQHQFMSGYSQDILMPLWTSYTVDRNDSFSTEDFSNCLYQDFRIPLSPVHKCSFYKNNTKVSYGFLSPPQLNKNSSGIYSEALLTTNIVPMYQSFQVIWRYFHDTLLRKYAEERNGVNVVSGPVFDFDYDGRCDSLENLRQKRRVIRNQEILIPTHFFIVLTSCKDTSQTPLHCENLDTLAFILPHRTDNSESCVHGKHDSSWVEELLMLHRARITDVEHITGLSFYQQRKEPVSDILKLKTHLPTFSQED
Put plainly: ENPP1 enzyme assay with AMP-pNP substrate (hydrolysis of ATP analog). As to conditions: AMP-pNP substrate (ATP analog); Ki from IC50 by Cheng-Prusoff; read-out: ENPP1 Inhibition _AMP-pNP: Ki. The method, then: The ENPP1 assay with AMP-pNP substrate is conducted in a buffer containing 50 mM Tris-HCl (pH 8.5)/ 250 mM NaCl/0.5 mM CaCl2/1 µM ZnCl2/0.1% DMSO. Inhibitors are added at final concentrations ranging between 10 µM and 30 pM depending on the compound. Duplicate wells are run at each inhibitor concentration. The final assay volume is 40 µL and human recombinant ENPP1 is present at 60 ng/well. The assay is initiated by the addition of substrate (300 µM AMP-pNP final concentration), and incubated for 20 minutes at 37° C. […] Each assay plate also includes wells with no enzyme added (MIN OD) and wells with no inhibitor added (MAX OD). The percent inhibition of ENPP1 for each sample is then calculated as: […]
IC50 values of compounds were calculated by entering the percent inhibition values into a sigmoidal variable slope nonlinear regression model in GraphPad Prism® software.

Assay [2] addresses T1, ENPP1. Put plainly: Indirect quantitation of 2',3'-cGAMP hydrolysis (AMP-Glo Assay kit). Conditions: cGAMP substrate; Ki from IC50 by Cheng-Prusoff; read-out: ENPP1 Inhibition -cGAMP: Ki.
Assay [3] concerns the target T1, ENPP1. Put plainly: Substrate selectivity ratio, inhibition of cGAMP hydrolysis versus ATP hydrolysis. As to conditions: ratio Ki AMP-pNP / Ki cGAMP. The method, then:
The selectivity ratios for inhibition of cGAMP hydrolysis versus ATP hydrolysis were then calculated as follows: […]

For `COc1ccc2c(-n3cc(Cl)c4cc(NS(N)(=O)=O)ccc43)ccnc2c1` [Example 413, N-(3-chloro-1-(7-methoxyquinolin-4-yl)-1H-indol-5-yl)sulfamide], the Ki was more than 1000 nM on ENPP1 [1] and 100 to 1000 nM on ENPP1 [2]. On ENPP1 [3], the “Substrate Selectivity: Ki_AMP-pNP/Ki_cGAMP” value (“Substrate Selectivity” below) is reported as more than 153.

`COc1ccc2c(-c3ccc(CNS(N)(=O)=O)cc3Cl)ccnc2c1` [Example 419, N-(3-chloro-4-(7-methoxyquinolin-4-yl)benzyl)sulfamide]: the Ki at ENPP1 [1] was more than 1000 nM; at ENPP1 [2], less than 100 nM. On ENPP1 [3], the “Substrate Selectivity” value is more than 70.

On to `COc1cc2nccc(Oc3ccc(S(N)(=O)=O)cc3)c2cc1F` [Example 74, 4-((6-fluoro-7-methoxyquinolin-4-yl)oxy)benzenesulfonamide], for which the Ki at ENPP1 [1] and on ENPP1 [2] was less than 100 nM throughout. Also, at ENPP1 [3], the “Substrate Selectivity” value came to 22.5.

For `COc1ccc2c(N3CCc4cc(NS(N)(=O)=O)cc(F)c43)ccnc2c1` [Example 375, N-(7-fluoro-1-(7-methoxyquinolin-4-yl)indolin-5-yl)sulfamide], the Ki on ENPP1 [1] and on ENPP1 [2] was less than 100 nM each time. Further, the “Substrate Selectivity” value on ENPP1 [3] was 25.

With `COc1ccc2c(Oc3ccc4c(c3)CCCN4S(N)(=O)=O)ccnc2c1` [Example 319, 6-((7-methoxyquinolin-4-yl)oxy)-3,4-dihydroquinoline-1(2H)-sulfonamide], the Ki on ENPP1 [1] was more than 1000 nM; at ENPP1 [2], less than 100 nM. The “Substrate Selectivity” value on ENPP1 [3] is more than 35.9.

For `NS(=O)(=O)NCCC1CCN(c2cc(-c3ccc4c(c3)OCO4)ncn2)CC1` [Example 10, N-(2-(1-(6-(benzo[d][1,3]dioxol-5-yl)pyrimidin-4-yl)piperidin-4-yl)ethyl)sulfamide], the Ki at ENPP1 [1] and at ENPP1 [2] was more than 1000 nM each time.

As for `COc1cc2nccc(Nc3ccc(NS(=O)(=O)C(F)(F)F)cc3)c2cc1OC` [Example 174, N-(4-((6,7-dimethoxyquinolin-4-yl)amino)phenyl)-1,1,1-trifluoromethanesulfonamide], the figures for the Ki on ENPP1 [1] and at ENPP1 [2] were more than 1000 nM and 100 to 1000 nM, respectively.

`COc1cc2nccc(Oc3ccc(NS(N)(=O)=O)cc3)c2cc1F` [Example 282, N-(4-((6-fluoro-7-methoxyquinolin-4-yl)oxy)phenyl)sulfamide]: the Ki on ENPP1 [1] and on ENPP1 [2] was less than 100 nM in each case.

Regarding `COc1cc2ncnc(N(C)c3ccc(NS(N)(=O)=O)cc3)c2cc1OC` [Example 190, N-(4-((6,7-dimethoxyquinazolin-4-yl)(methyl)amino)phenyl)sulfamide], the Ki on ENPP1 [1] and on ENPP1 [2] was more than 1000 nM each time.

`COc1cc2cnn(-c3ccc(CCNS(N)(=O)=O)cc3)c2cc1OC` [Example 210, N-(4-(5,6-dimethoxy-1H-indazol-1-yl)phenethyl)sulfamide]: the Ki at ENPP1 [2] is more than 1000 nM.

On to `COc1cc2nccc(Oc3ccc(N)cc3)c2cc1OC` [Example 341, 4-((6,7-dimethoxyquinolin-4-yl)oxy)aniline], for which, at ENPP1 [2], the Ki was more than 1000 nM.

Take `NS(=O)(=O)Nc1ccc(Oc2ccnc3cc(F)ccc23)cc1` [Example 298, N-(4-((7-fluoroquinolin-4-yl)oxy)phenyl)sulfamide]: the Ki at ENPP1 [2] was more than 1000 nM.

As for `COc1cc2nc(N(C)C)nc(N3CCC(CCNC=O)CC3)c2cc1OC` [Example 118, N-(2-(1-(2-(dimethylamino)-6,7-dimethoxyquinazolin-4-yl)piperidin-4-yl)ethyl)formamide], at ENPP1 [2], the Ki was more than 1000 nM.

`COc1cc2ncnc(-c3ccc(NS(N)(=O)=O)cc3)c2cc1OC` [Example 113, N-(4-(6,7-dimethoxyquinazolin-4-yl)phenyl)sulfamide]: on ENPP1 [2], the Ki was 100 to 1000 nM.

Turning to `COc1ccc2c(Oc3ccc4c(c3)CCC(=O)N4)ccnc2c1` [Example 318, 6-((7-methoxyquinolin-4-yl)oxy)-3,4-dihydroquinolin-2(1H)-one], on ENPP1 [2], the Ki was more than 1000 nM.

On to `COc1cc2ncnc(N3CCC(CCNS(=O)(=O)N(C)C)CC3)c2cc1OC` [Example 143, 2-(1-(6,7-dimethoxyquinazolin-4-yl)piperidin-4-yl)ethan-1-amino(N,N-dimethyl)sulfonamide], for which the Ki at ENPP1 [2] was more than 1000 nM.

On to `COc1cc2ncnc(N3CCC(Cn4c(N)nc5ccccc54)CC3)c2cc1OC` [Example 252, 1-((1-(6,7-dimethoxyquinazolin-4-yl)piperidin-4-yl)methyl)-1H-benzo[d]imidazol-2-amine], for which the Ki at ENPP1 [2] was more than 1000 nM.

For `COc1cc2ncnc(N3CCC(CNc4nc5ccccc5[nH]4)CC3)c2cc1OC` [Example 251, N-((1-(6,7-dimethoxyquinazolin-4-yl)piperidin-4-yl)methyl)-1H-benzo[d]imidazol-2-amine], on ENPP1 [2], the Ki is more than 1000 nM.

Consider `COc1ccc2c(Oc3ccc(N(Cc4ccccc4)S(N)(=O)=O)cc3)ccnc2c1` [Example 309, N-benzyl-N-(4-((7-methoxyquinolin-4-yl)oxy)phenyl)sulfamide], for which the Ki on ENPP1 [2] lay within 100 to 1000 nM.

With `COc1ccc2c(Oc3ccc(NS(N)(=O)=O)c(OC)c3)ccnc2n1` [Example 421, N-(2-methoxy-4-((7-methoxy-1,8-naphthyridin-4-yl)oxy)phenyl)sulfamide], the inhibition constant (Ki) on ENPP1 [2] is less than 100 nM.

For the molecule `COc1ccc2c(-c3ccc4c(c3)CN(S(N)(=O)=O)CC4)c(C(F)(F)F)cnc2c1` [Example 408, 7-(7-methoxy-3-(trifluoromethyl)quinolin-4-yl)-3,4-dihydroisoquinoline-2(1H)-sulfonamide], the Ki on ENPP1 [2] is 100 to 1000 nM.

For `COc1ccc2c(-c3ccc(CNS(N)(=O)=O)cc3)coc2c1` [Example 348, N-(4-(6-methoxybenzofuran-3-yl)benzyl) sulfamide], at ENPP1 [2], the Ki lay within 100 to 1000 nM.

Consider `COc1ccc(S(=O)(=O)N2CCN(CCNS(N)(=O)=O)CC2)cc1OC` [Example 152, N-(2-(4-((3,4-dimethoxyphenyl)sulfonyl)piperazin-1-yl)ethyl)sulfamide], for which the Ki on ENPP1 [2] was more than 1000 nM.

With `COc1ccc(-c2cc(N3CCC(CNS(N)(=O)=O)CC3)ncn2)cc1OC` [Example 37, N-((1-(6-(3,4-dimethoxyphenyl)pyrimidin-4-yl)piperidin-4-yl)methyl)sulfamide], at ENPP1 [2], the Ki was more than 1000 nM.

As to `COc1ccc2c(-c3ccc4c(c3)CN(S(N)(=O)=O)CC4)c(C#N)cnc2c1` [Example 249, 7-(3-cyano-7-methoxyquinolin-4-yl)-3,4-dihydroisoquinoline-2(1H)-sulfonamide], the Ki on ENPP1 [1] is more than 1000 nM; at ENPP1 [2], 100 to 1000 nM.

Take `COc1cc2ncnc(N3CCC4(CC3)CN(S(N)(=O)=O)C4)c2cc1OC` [Example 30, 7-(6,7-dimethoxyquinazolin-4-yl)-2,7-diazaspiro[3.5]nonane-2-sulfonamide]: the Ki on ENPP1 [1] is more than 1000 nM. Further, the “Substrate Selectivity” value on ENPP1 [3] came out at 39.4.

`COc1ccc2c(-c3ccc(CNS(N)(=O)=O)cc3OC)ccnc2c1` [Example 383, N-(3-methoxy-4-(7-methoxyquinolin-4-yl)benzyl)sulfamide]: on ENPP1 [2], the Ki is more than 1000 nM.

As for `NS(=O)(=O)NCCC1CCN(c2ccnc3ncn(-c4ccccc4)c23)CC1` [Example 211, N-(2-(1-(1-phenyl-1H-imidazo[4,5-b]pyridin-7-yl)piperidin-4-yl)ethyl)sulfamide], the Ki at ENPP1 [2] was more than 1000 nM.

For the molecule `COc1cc2ncnc(N3CCC(CCNS(=O)(=O)NC(C)C)CC3)c2cc1OC` [Example 142, 2-(1-(6,7-dimethoxyquinazolin-4-yl)piperidin-4-yl)ethan-1-amino(N-prop-2-yl)sulfonamide], on ENPP1 [2], the inhibition constant (Ki) was more than 1000 nM.
